For data set [1], the system named is rat neuronal mitochondria. Kind of data set: Mitochondrial swelling assay (inhibition of mitochondrial permeability transition, MPT). Particulars: compound 100 nM added 5 minutes before Ca2+; swelling induced by 100 micromolar calcium chloride; absorbance 620nm; control 100. The format is biochemical.
Description: The effect of cyclosporine analogs on mitochondrial permeability transition (MPT) was determined by a modified mitochondrial swelling assay measured as an influx of Ca^2+, published by J. Blattner et al., 2001, Analytical Biochem, 295, 220-226. Briefly, rat neuronal mitochondria in an ice-cold sucrose buffer were obtained after rat whole-body perfusion and a series of centrifugation. The total protein concentration in each sample batch was determined for standardization between assays. The mitochondrial swelling was induced by 100 micromolar of Calcium Chloride. Each compound (100 nM) was added to mitochondria 5 minutes before the addition of Ca^2+. The value of absorbance at the certain wavelength (620nm) reflected the degree of mitochondrial swelling. The percentage of the swelling was calculated by comparing the absorbance in the present or absent compound of the interests.
A short description of data set [2]: Stability testing: epimerization of cyclosporin derivatives in methanol, monitored by HPLC. The format is physicochemical. Conditions: for Epimerization % after 168 hours: Table 11, MeOH at 50° C.-58° C.
Data set [3] has as its system HIV-1IIIB in CEM-SS cells. Kind of data set: Anti-HIV cytoprotection assay, acute infection model, MTS endpoint. Conditions: Table 17, HIV-1IIIB in CEM-SS cells, 6-day incubation, read-out: Antiviral activity EC50. The class given is cell-based. The procedure:
Anti-HIV activity of cyclosporine derivatives were evaluated by cytoprotection assay in an acute infection model using CEM-SS cells and either HIV-1IIIB or HIV-1 RF. Antiviral activity was determined as a reduction in virus-caused cytopathic effects when compounds prevent virus replication. Cytoprotection and compound cytotoxicity were evaluated using the tetrazollium dye MTS (Promega) to calculate cell viability following virus infection after 6-day incubation (Zhou G., et al., 2011, J. Med. Chem. 27, 7220-31; which is incorporated herein by reference).

Data set [4] relates to HCV replicon in cell line ET (luc-ubi-neo/ET), Huh7 human hepatoma. Kind of data set: HCV subgenomic replicon assay, luciferase end point. The class given is cell-based. Conditions: Hepatitis C virus, read-out: Antiviral activity EC50.
[5] abbreviates: Table 10, MeOH at 50° C., 29 hours.
Setting [6] is: Table 10, MeOH at 50° C., 77 hours.
The mark [7] stands for this setting: Table 10, MeOH at 50° C., 125 hours.
Where [8] appears, read: Human immunodeficiency virus 1, 144 h.

Read-outs that look alike come from different tables or passages of the source. *1 amine or outer side, *2 acyl side, *3 side chain or, on linkers, in order; H or OH if unused. Where a SMILES comes first, the peptide text is derived from it. [ ]: non-standard residue; d: D form. ξ: configuration not given here. MeBmt = C/C=C/C[C@@H](C)[C@@H](O)[C@H](NC)C(=O)O; X2 = CCN(CC)CCCS[C@H](C(=O)[*:2])N(C)[*:1]; X6 = CCN(CC)CCS[C@H](C(=O)[*:2])N(C)[*:1]; X3 = CC=CCC(C)C(O)C(C(=O)[*:2])N(C)[*:1]; X5 = CSCOC(C)(C)CC(C(=O)[*:2])N(C)[*:1]; X4 = CCN(CC)CCSC(C(=O)[*:2])N(C)[*:1]; NMeIle(3ξ) = CCC(C)[C@H](NC)C(=O)O; NMeL = CN[CH](CC(C)C)C(=O)O; NMeV = CN[CH](C(=O)O)C(C)C; Abu = CC[CH](N)C(=O)O

Consider `C/C=C/C[C@@H](C)[C@@H](O)[C@H]1C(=O)N[C@@H](CC)C(=O)N(C)[C@H](CSCCN(CC)CC)C(=O)N(C)[C@@H](CC(C)(C)O)C(=O)N[C@@H](C(C)C)C(=O)N(C)[C@@H](CC(C)C)C(=O)N[C@@H](C)C(=O)N[C@H](C)C(=O)N(C)[C@@H](CC(C)C)C(=O)N(C)[C@@H](CC(C)C)C(=O)N(C)[C@@H](C(C)C)C(=O)N1C`, for which, in data set [1], the “Mitochondrial Swelling Relative %” value stood at 55.7%.

As for `C/C=C/C[C@@H](C)[C@@H](O)[C@H]1C(=O)N[C@@H](CC)C(=O)N(C)[C@H](SCCCN(CC)CC)C(=O)N(C)[C@@H](C(C)CC)C(=O)N[C@@H](C(C)C)C(=O)N(C)[C@@H](CC(C)C)C(=O)N[C@@H](C)C(=O)N[C@H](C)C(=O)N(C)[C@@H](CC(C)C)C(=O)N(C)[C@@H](CC(C)C)C(=O)N(C)[C@@H](C(C)C)C(=O)N1C` (some centres unmarked) (cyclo(A[dA][NMeL][NMeL][NMeV][MeBmt][Abu][X2][NMeIle(3ξ)]V[NMeL])), the Epimerization % in data set [2] (setting [5]), in data set [2] (setting [6]) and in data set [2] (setting [7]) was 0% in each case.

With `C/C=C/C[C@@H](C)[C@@H](O)[C@H]1C(=O)N[C@@H](CC)C(=O)N(C)[C@H](SCCCN(CC)CC)C(=O)N(C)[C@@H](C(C)C)C(=O)N[C@@H](C(C)C)C(=O)N(C)[C@@H](CC(C)C)C(=O)N[C@@H](C)C(=O)N[C@H](C)C(=O)N(C)[C@@H](CC(C)C)C(=O)N(C)[C@@H](CC(C)C)C(=O)N(C)[C@@H](C(C)C)C(=O)N1C` (cyclo(A[dA][NMeL][NMeL][NMeV][MeBmt][Abu][X2][NMeV]V[NMeL])), the Epimerization % in data set [2] (setting [5]), in data set [2] (setting [6]) and in data set [2] (setting [7]) was 0% each time.

For `C/C=C/C[C@@H](C)[C@@H](O)[C@H]1C(=O)N[C@@H](CC)C(=O)N(C)[C@H](SCCN(CC)CC)C(=O)N(C)[C@@H](C(C)CC)C(=O)N[C@@H](C(C)C)C(=O)N(C)[C@@H](CC(C)C)C(=O)N[C@@H](C)C(=O)N[C@H](C)C(=O)N(C)[C@@H](CC(C)C)C(=O)N(C)[C@@H](CC(C)C)C(=O)N(C)[C@@H](C(C)C)C(=O)N1C` (some centres unmarked) (cyclo(A[dA][NMeL][NMeL][NMeV][MeBmt][Abu][X6][NMeIle(3ξ)]V[NMeL])), the figures for the Epimerization % in data set [2] (setting [5]), in data set [2] (setting [6]) and in data set [2] (setting [7]) were ~4%, ~10% and ~16%, respectively.

As to `CC=CCC(C)C(O)C1C(=O)NC(CC)C(=O)N(C)C(SCCN(CC)CC)C(=O)N(C)C(CC(C)(C)OCSC)C(=O)NC(C(C)C)C(=O)N(C)C(CC(C)C)C(=O)NC(C)C(=O)NC(C)C(=O)N(C)C(CC(C)C)C(=O)N(C)C(CC(C)C)C(=O)N(C)C(C(C)C)C(=O)N1C` (centres unmarked) (cyclo([X3][Abu][X4][X5]V[NMeL]AA[NMeL][NMeL][NMeV]); configuration not given here), the “Mitochondrial Swelling Relative %” value in data set [1] came out at 52.4%.

For `C/C=C/C[C@@H](C)[C@@H](O)[C@H]1C(=O)N[C@@H](CC)C(=O)N(C)[C@H](CSCCN(C)C)C(=O)N(C)[C@@H](CC(C)C)C(=O)N[C@@H](C(C)C)C(=O)N(C)[C@@H](CC(C)C)C(=O)N[C@@H](C)C(=O)N[C@H](C)C(=O)N(C)[C@@H](CC(C)C)C(=O)N(C)[C@@H](CC(C)C)C(=O)N(C)[C@@H](C(C)C)C(=O)N1C` (single isomer, unassigned), the “Epimerization % after 168 hours” value in data set [2] was 0%.

For `C/C=C/C[C@@H](C)[C@@H](O)[C@H]1C(=O)N[C@@H](CC)C(=O)N(C)[C@H](CSCCN(CC)CC)C(=O)N(C)[C@@H](CC(C)C)C(=O)N[C@@H](C(C)C)C(=O)N(C)[C@@H](CC(C)C)C(=O)N[C@@H](C)C(=O)N[C@H](C)C(=O)N(C)[C@@H](CC(C)C)C(=O)N(C)[C@@H](CC(C)C)C(=O)N(C)[C@@H](C(C)C)C(=O)N1C` (single isomer, unassigned), in data set [2], the “Epimerization % after 168 hours” value was found to be 0%.

Turning to `C/C=C/C[C@@H](C)[C@@H](O)[C@H]1C(=O)N[C@@H](CC)C(=O)N(C)[C@H](CSCCN(C)C)C(=O)N(C)[C@@H](CC(C)(C)O)C(=O)N[C@@H](C(C)C)C(=O)N(C)[C@@H](CC(C)C)C(=O)N[C@@H](C)C(=O)N[C@H](C)C(=O)N(C)[C@@H](CC(C)C)C(=O)N(C)[C@@H](CC(C)C)C(=O)N(C)[C@@H](C(C)C)C(=O)N1C` (single isomer, unassigned), in data set [3] (setting [8]), the EC50 came out at 118 nM.

On to `Cc1cn([C@H]2C[C@H](N=[N+]=[N-])[C@@H](CO)O2)c(=O)[nH]c1=O` [AZT], for which, in data set [3], the EC50 is 9 nM.

For the compound `C/C=C/C[C@@H](C)[C@@H](O)[C@H]1C(=O)N[C@@H](CC)C(=O)N(C)[C@H](CSCCN2CCOCC2)C(=O)N(C)[C@@H](CC(C)(C)O)C(=O)N[C@@H](C(C)C)C(=O)N(C)[C@@H](CC(C)C)C(=O)N[C@@H](C)C(=O)N[C@H](C)C(=O)N(C)[C@@H](CC(C)C)C(=O)N(C)[C@@H](CC(C)C)C(=O)N(C)[C@@H](C(C)C)C(=O)N1C` [[(S)-(2-(N-Morpholino)ethylthio)methyl-Sar]-3-[(γ-hydroxy)-N-MeLeu]-4-cyclosporin], the EC50 amounted to 60 nM in data set [4] (Huh-7, HCV subgenomic replicon, cell line ET (luc-ubi-neo/ET) Huh7, luciferase end point); 20 nM in data set [4] (Huh-7, Table 14, HCV replicon luciferase); 94.9 nM in data set [3] (setting [8]).

As to `C/C=C/C[C@@H](C)[C@@H](O)[C@H]1C(=O)N[C@@H](CC)C(=O)N(C)[C@H](SCCN(C)C)C(=O)N(C)[C@@H](CC(C)C)C(=O)N[C@@H](C(C)C)C(=O)N(C)[C@@H](CC(C)C)C(=O)N[C@@H](C)C(=O)N[C@H](C)C(=O)N(C)[C@@H](CC(C)C)C(=O)N(C)[C@@H](CC(C)C)C(=O)N(C)[C@@H](C(C)C)C(=O)N1C` [drawing 1930], the Epimerization % in data set [2] (Table 7, MeOH at 65° C., 2 hours) was ~12%; in data set [2] (Table 7, MeOH at 65° C., 4 hours) it was ~19%; in data set [2] (Table 7, MeOH at 65° C., 6 hours), ~23%.

For `C/C=C/C[C@@H](C)[C@@H](O)[C@H]1C(=O)N[C@@H](CC)C(=O)N(C)[C@H](SCCCN2CCOCC2)C(=O)N(C)[C@@H](CC(C)(C)O)C(=O)N[C@@H](C(C)C)C(=O)N(C)[C@@H](CC(C)C)C(=O)N[C@@H](C)C(=O)N[C@H](C)C(=O)N(C)[C@@H](CC(C)C)C(=O)N(C)[C@@H](CC(C)C)C(=O)N(C)[C@@H](C(C)C)C(=O)N1C` [drawing 1931], the “Epimerization % in MeOH at 65° C.” value in data set [2] (Table 8, 2 hours) was 0%; in data set [2] (Table 8, 4 hours), 0%; in data set [2] (Table 8, 6 hours), 0%; in data set [2] (Table 8, 8 hours), “Less than 1%”; in data set [2] (Table 8, 10 hours), ~10%.

As to `C/C=C/C[C@@H](C)[C@@H](O)[C@H]1C(=O)N[C@@H](CC)C(=O)N(C)[C@H](SCCCN2CCOCC2)C(=O)N(C)[C@@H](CC(C)(C)OC)C(=O)N[C@@H](C(C)C)C(=O)N(C)[C@@H](CC(C)C)C(=O)N[C@@H](C)C(=O)N[C@H](C)C(=O)N(C)[C@@H](CC(C)C)C(=O)N(C)[C@@H](CC(C)C)C(=O)N(C)[C@@H](C(C)C)C(=O)N1C` [drawing 1932], the “Epimerization % in MeOH at 65° C.” value in data set [2] (Table 9, 2 hours) turned out to be 0%; in data set [2] (Table 9, 4 hours), 0%; in data set [2] (Table 9, 10 hours) it was 0%; in data set [2] (Table 9, 22 hours), 0%; in data set [2] (Table 9, 30 hours), 0%; in data set [2] (Table 9, 38 hours), 0%.

Consider `C/C=C/C[C@@H](C)[C@@H](O)[C@H]1C(=O)N[C@@H](CC)C(=O)N(C)[C@H](SCCN(C)C)C(=O)N(C)[C@@H](CC(C)C)C(=O)N[C@@H](C(C)C)C(=O)N(C)[C@@H](CC(C)C)C(=O)N[C@@H](C)C(=O)N[C@H](C)C(=O)N(C)[C@@H](CC(C)C)C(=O)N(C)[C@@H](CC(C)C)C(=O)N(C)[C@@H](C(C)C)C(=O)N1C` [drawing 1933], for which the Epimerization % in data set [2] (setting [5]) is reported as ~26%; in data set [2] (setting [6]), ~32%; in data set [2] (setting [7]), ~35%.

As to `C/C=C/C[C@@H](C)[C@@H](O)[C@H]1C(=O)N[C@@H](CC)C(=O)N(C)[C@H](SCCCN2CCOCC2)C(=O)N(C)[C@@H](CC(C)(C)O)C(=O)N[C@@H](C(C)C)C(=O)N(C)[C@@H](CC(C)C)C(=O)N[C@@H](C)C(=O)N[C@H](C)C(=O)N(C)[C@@H](CC(C)C)C(=O)N(C)[C@@H](CC(C)C)C(=O)N(C)[C@@H](C(C)C)C(=O)N1C` [drawing 1936], the Epimerization % in data set [2] (setting [5]), in data set [2] (setting [6]) and in data set [2] (setting [7]) was 0% throughout.

As to `C/C=C/C[C@@H](C)[C@@H](O)[C@H]1C(=O)N[C@@H](CC)C(=O)N(C)[C@H](SCCCN2CCOCC2)C(=O)N(C)[C@@H](CC(C)(C)OC)C(=O)N[C@@H](C(C)C)C(=O)N(C)[C@@H](CC(C)C)C(=O)N[C@@H](C)C(=O)N[C@H](C)C(=O)N(C)[C@@H](CC(C)C)C(=O)N(C)[C@@H](CC(C)C)C(=O)N(C)[C@@H](C(C)C)C(=O)N1C` [drawing 1937], the Epimerization % in data set [2] (setting [5]), in data set [2] (setting [6]) and in data set [2] (setting [7]) was 0% in each case.

As a reminder, the EC50 is the concentration giving half of the maximal effect.
